How the values were obtained:
Test in all cases: DTP Human Tumor Cell Line Screen, sulforhodamine B assay
Format in all cases: cell-based
RXF 393 = conditions: Renal Cancer, 48 h
Procedure: (§1) The growth inhibitory activity of propargylic sulfone 3.2 against a wide range of human cancer cell lines was determined calorimetrically with sulforhodamine B assay conducted by the National Cancer Institute of the National Institutes of Health.
(§2) The in vitro cytotoxicity of compounds 2.47, 2.48 and 3.2 were investigated using the DTP Human Tumor Cell Line Screen. The concept, rationale and history of development of the DTP Human Tumor Cell Line Screen were described by Boyd (1993;1997)^8.4, 8.6 and Boyd and Paull (1995)^8.5. Further technical details of the NCI screening procedures were described (Monks, et. al.)^8.2 as were the origins and processing of the cell lines (Alley, et. al., Shoemaker, et. al., Stinson, et. al.). Briefly, cell suspensions that were diluted according to the particular cell type and the expected target cell density (5000-40,000 cells per well based on cell growth characteristics) were added by pipet (100 μL) into 96-well microtiter plates. Inoculates were allowed a preincubation period of 24 h at 37° C. for stabilization. Dilutions at twice the intended test concentration were added at time zero in 100-μL aliquots to the microtiter plate wells. Usually, test compounds were evaluated at five 10-fold dilutions. In routine testing, the highest well concentration is 10E-4 M, but for the standard agents the highest well concentration used depended on the agent. Incubations lasted for 48 h in 5% CO2 atmosphere and 100% humidity. The cells were assayed by using the sulforhodamine B assay (Rubinstein, et. al., Skehan, et. al.). A plate reader was used to read the optical densities, and a microcomputer processed the optical densities into the special concentration parameters.

SN12C = conditions: Renal Cancer, 48 h
Procedure: as §1, §2

MOLT-4 = conditions: Leukemia, 48 h
Procedure: as §1, §2

NCI-H522 = conditions: Non-Small Cell Lung Cancer, 48 h
Procedure: as §1, §2

A-549/ATCC = conditions: 48 h
Procedure: as §1, §2

MDA-MB-435 = conditions: Breast Cancer, 48 h
Procedure: as §1, §2

UACC-257 = conditions: Melanoma, 48 h
Procedure: as §1, §2

COLO 205 = conditions: Colon Cancer, 48 h
Procedure: as §1, §2

SW-620 = conditions: Colon Cancer, 48 h
Procedure: as §1, §2

NCI-H226 = conditions: Non-Small Cell Lung Cancer, 48 h
Procedure: as §1, §2

HCT-15 = conditions: Colon Cancer, 48 h
Procedure: as §1, §2

HL-60 (TB) = conditions: Leukemia, 48 h
Procedure: as §1, §2

SF-295 = conditions: CNS Cancer, 48 h
Procedure: as §1, §2

EKVX = conditions: Non-Small Cell Lung Cancer, 48 h
Procedure: as §1, §2

UACC-62 = conditions: Melanoma, 48 h
Procedure: as §1, §2

KM12 = conditions: Colon Cancer, 48 h
Procedure: as §1, §2

SK-OV-3 = conditions: Ovarian Cancer, 48 h
Procedure: as §1, §2

OVCAR-5 = conditions: Ovarian Cancer, 48 h
Procedure: as §1, §2

MCF7 = conditions: Breast Cancer, 48 h
Procedure: as §1, §2

HCC-2998 = conditions: Colon Cancer, 48 h
Procedure: as §1, §2

BT-549 = conditions: Breast Cancer, 48 h
Procedure: as §1, §2

SF-268 = conditions: CNS Cancer, 48 h
Procedure: as §1, §2

MCF7/ADR-RES = conditions: Breast Cancer, 48 h
Procedure: as §1, §2

SK-MEL-2 = conditions: Melanoma, 48 h
Procedure: as §1, §2

HT29 = conditions: 48 h
Procedure: as §1, §2

HS 578T = conditions: Breast Cancer, 48 h
Procedure: as §1, §2

HOP-62 = conditions: Non-Small Cell Lung Cancer, 48 h
Procedure: as §1, §2

NCI-H460 = conditions: Non-Small Cell Lung Cancer, 48 h
Procedure: as §1, §2

SK-MEL-5 = conditions: Melanoma, 48 h
Procedure: as §1, §2

MDA-MB-231/ATCC = conditions: Breast Cancer, 48 h
Procedure: as §1, §2

OVCAR-8 = conditions: Ovarian Cancer, 48 h
Procedure: as §1, §2

OVCAR-3 = conditions: Ovarian Cancer, 48 h
Procedure: as §1, §2

TK-10 = conditions: Renal Cancer, 48 h
Procedure: as §1, §2

SK-MEL-28 = conditions: Melanoma, 48 h
Procedure: as §1, §2

NCI-H322M = conditions: Non-Small Cell Lung Cancer, 48 h
Procedure: as §1, §2

SF-539 = conditions: CNS Cancer, 48 h
Procedure: as §1, §2

CAKI-1 = conditions: Renal Cancer, 48 h
Procedure: as §1, §2

OVCAR-4 = conditions: Ovarian Cancer, 48 h
Procedure: as §1, §2

SNB-19 = conditions: CNS Cancer, 48 h
Procedure: as §1, §2

786-0 = conditions: Renal Cancer, 48 h
Procedure: as §1, §2

DU-145 = conditions: Prostate Cancer, 48 h
Procedure: as §1, §2

Compound: O=S1(=O)CC#CCOCCOCCOCCOCCOCCOCC#CC1 [Compound 2.47]
- IC50 (RXF 393): 15.1 µM
- IC50 (SN12C): 13.2 µM
- IC50 (MOLT-4): 3.7 µM
- IC50 (NCI-H522): 2.86 µM
- IC50 (A-549/ATCC; Non-Small Cell Lung Cancer): 20.2 µM
- IC50 (MDA-MB-435): 13.3 µM
- IC50 (UACC-257): 11.6 µM
- IC50 (COLO 205): 7.2 µM
- IC50 (SW-620): 10.4 µM
- IC50 (NCI-H226): 39.7 µM
- IC50 (HCT-15): 15.5 µM
- IC50 (HL-60 (TB)): 13.5 µM
- IC50 (SF-295): 32 µM
- IC50 (EKVX): 15.1 µM
- IC50 (UACC-62): 0.28 µM
- IC50 (KM12): 16.2 µM
- IC50 (SK-OV-3): 36 µM
- IC50 (OVCAR-5): 17.1 µM
- IC50 (MCF7): 10.1 µM
- IC50 (HCC-2998): 19.1 µM
- IC50 (BT-549): 14.1 µM
- IC50 (SF-268): 24.2 µM
- IC50 (MCF7/ADR-RES): 25.7 µM
- IC50 (SK-MEL-2): 16.1 µM
- IC50 (HT29; Colon Cancer): 13.8 µM
- IC50 (HS 578T): 40.7 µM
- IC50 (HOP-62): 21.7 µM
- IC50 (NCI-H460): 19.3 µM
- IC50 (SK-MEL-5): 16.8 µM
- IC50 (MDA-MB-231/ATCC): 20 µM
- IC50 (OVCAR-8): 14.2 µM
- IC50 (OVCAR-3): 15.8 µM
- IC50 (TK-10): 13.9 µM
- IC50 (SK-MEL-28): 18.9 µM
- IC50 (NCI-H322M): 17.5 µM
- IC50 (SF-539): 11.1 µM
- IC50 (CAKI-1): 12.2 µM
- IC50 (OVCAR-4): 19.8 µM
- IC50 (SNB-19): 18.2 µM
- IC50 (786-0): 11 µM
- IC50 (DU-145): 32.8 µM

Compound: O=S1(=O)CC#CCOCCOCCOCCOCCOCCOCCOCC#CC1 [Compound 2.48]
- IC50 (RXF 393): 27 µM
- IC50 (SN12C): 18.8 µM
- IC50 (MOLT-4): 19.9 µM
- IC50 (NCI-H522): 10.6 µM
- IC50 (A-549/ATCC; Non-Small Cell Lung Cancer): 61.7 µM
- IC50 (MDA-MB-435): 20.4 µM
- IC50 (UACC-257): 21.2 µM
- IC50 (COLO 205): 14.7 µM
- IC50 (SW-620): 14.3 µM
- IC50 (NCI-H226): 86.9 µM
- IC50 (HCT-15): 32.7 µM
- IC50 (HL-60 (TB)): 20.9 µM
- IC50 (SF-295): 81.2 µM
- IC50 (EKVX): 20.9 µM
- IC50 (UACC-62): 17.1 µM
- IC50 (KM12): 20.7 µM
- IC50 (SK-OV-3): 32.2 µM
- IC50 (OVCAR-5): 18 µM
- IC50 (MCF7): 22 µM
- IC50 (HCC-2998): 17.7 µM
- IC50 (BT-549): 20 µM
- IC50 (SF-268): 30.5 µM
- IC50 (MCF7/ADR-RES): > 100 µM
- IC50 (SK-MEL-2): 17.3 µM
- IC50 (HT29; Colon Cancer): 18.7 µM
- IC50 (HS 578T): 52.8 µM
- IC50 (HOP-62): 21 µM
- IC50 (NCI-H460): 38 µM
- IC50 (SK-MEL-5): 18.1 µM
- IC50 (MDA-MB-231/ATCC): 23.5 µM
- IC50 (OVCAR-8): 33.3 µM
- IC50 (OVCAR-3): 19.7 µM
- IC50 (TK-10): 23 µM
- IC50 (SK-MEL-28): 17.9 µM
- IC50 (NCI-H322M): 32.3 µM
- IC50 (SF-539): 26.2 µM
- IC50 (CAKI-1): 21.2 µM
- IC50 (OVCAR-4): 27.3 µM
- IC50 (SNB-19): 27.9 µM
- IC50 (786-0): 18.4 µM
- IC50 (DU-145): > 100 µM

Compound: O=C(OCC1COCCOCCOCCOCCO1)c1ccc(CS(=O)(=O)CC#CCO)cc1 (stereo not drawn) [Compound 3.2]
- IC50 (RXF 393; Homo sapiens): > 100 µM
- IC50 (SN12C; Homo sapiens): 30.3 µM
- IC50 (MOLT-4; Homo sapiens): > 100 µM
- IC50 (NCI-H522; Homo sapiens): 18.8 µM
- IC50 (A-549/ATCC; Homo sapiens, A549, Non-Small Cell Lung Cancer): > 100 µM
- IC50 (MDA-MB-435; Homo sapiens): > 100 µM
- IC50 (UACC-257; Homo sapiens): > 100 µM
- IC50 (COLO 205; Homo sapiens): > 100 µM
- IC50 (SW-620; Homo sapiens): 67 µM
- IC50 (NCI-H226; Homo sapiens): > 100 µM
- IC50 (HCT-15; Homo sapiens): > 100 µM
- IC50 (HL-60 (TB); Homo sapiens): > 100 µM
- IC50 (SF-295; Homo sapiens): > 100 µM
- IC50 (EKVX; Homo sapiens): > 100 µM
- IC50 (UACC-62; Homo sapiens): 82.4 µM
- IC50 (KM12; Homo sapiens): > 100 µM
- IC50 (SK-OV-3; Homo sapiens): > 100 µM
- IC50 (OVCAR-5; Homo sapiens): > 100 µM
- IC50 (MCF7; Homo sapiens): > 100 µM
- IC50 (HCC-2998; Homo sapiens): > 100 µM
- IC50 (BT-549; Homo sapiens): > 100 µM
- IC50 (SF-268; Homo sapiens): > 100 µM
- IC50 (MCF7/ADR-RES; Homo sapiens): > 100 µM
- IC50 (SK-MEL-2; Homo sapiens): 98.7 µM
- IC50 (HT29; Homo sapiens, HT-29, Colon Cancer): > 100 µM
- IC50 (HS 578T; Homo sapiens): 80 µM
- IC50 (HOP-62; Homo sapiens): > 100 µM
- IC50 (NCI-H460; Homo sapiens): > 100 µM
- IC50 (SK-MEL-5; Homo sapiens): > 100 µM
- IC50 (MDA-MB-231/ATCC; Homo sapiens): > 100 µM
- IC50 (OVCAR-8; Homo sapiens): > 100 µM
- IC50 (OVCAR-3; Homo sapiens): > 100 µM
- IC50 (TK-10; Homo sapiens): > 100 µM
- IC50 (SK-MEL-28; Homo sapiens): > 100 µM
- IC50 (NCI-H322M; Homo sapiens): 34.3 µM
- IC50 (SF-539; Homo sapiens): 46.8 µM
- IC50 (CAKI-1; Homo sapiens): > 100 µM
- IC50 (OVCAR-4; Homo sapiens): > 100 µM
- IC50 (SNB-19; Homo sapiens): > 100 µM
- IC50 (786-0; Homo sapiens): 35.3 µM
- IC50 (DU-145; Homo sapiens): > 100 µM
